Assay results reported in US10597388B2, “Pyridazinone herbicides” (FMC CORPORATION, priority 2014, dated 2020).

How the values were obtained:
Test in all cases: Test C greenhouse herbicide test, pre- and postemergence
Format in all cases: in vivo
[1] = test system: blackgrass (Alopecurus myosuroides)
In short: (§1)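 Preemergence: seeds sown in a loam soil–sand blend and sprayed with test chemicals in a non-phytotoxic solvent mixture containing surfactant. Postemergence: plants grown in peat-based medium and treated at 2 to 18 cm (1- to 4-leaf stage). After 13 to 15 d in a greenhouse, injury was visually rated 0–100 against controls.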

corn (Zea mays) = test system: corn (Zea mays)
In short: as §1

[2] = test system: crabgrass, large (large crabgrass, Digitaria sanguinalis)
In short: as §1

[3] = test system: foxtail, giant (giant foxtail, Setaria faberii)
In short: as §1

[4] = test system: galium (catchweed bedstraw, Galium aparine)
In short: as §1

[5] = test system: johnsongrass (Sorghum halepense)
In short: as §1

[6] = test system: lambsquarters (Chenopodium album)
In short: as §1

[7] = test system: morningglory (Ipomoea coccinea)
In short: as §1

[8] = test system: nutsedge, yellow (yellow nutsedge, Cyperus esculentus)
In short: as §1

[9] = test system: oilseed rape (Brassica napus)
In short: as §1

[10] = test system: pigweed (Amaranthus retroflexus)
In short: as §1

[11] = test system: ryegrass, Italian (Italian ryegrass, Lolium multiflorum)
In short: as §1

soybean (Glycine max) = test system: soybean (Glycine max)
In short: as §1

[12] = test system: velvetleaf (Abutilon theophrasti)
In short: as §1

[13] = test system: waterhemp (common waterhemp, Amaranthus rudis)
In short: as §1

[14] = test system: wheat (winter wheat, Triticum aestivum)
In short: as §1

[15] = Postemergence, 31 g ai/ha, 0 to 100 scale (0 no effect, 100 complete control)
[16] = Postemergence, 125 g ai/ha, scale 0 to 100, 0 is no effect, 100 is complete control
[17] = Postemergence, 250 g ai/ha, scale 0 to 100, 0 no effect, 100 complete control, 13 to 15 d
[18] = Preemergence, 31 g ai/ha, scale 0 to 100, 0 is no effect, 100 is complete control
[19] = Preemergence, 62 g ai/ha, scale 0 to 100, 0 is no effect, 100 is complete control
[20] = Preemergence, 125 g ai/ha, scale 0 to 100, 0 is no effect, 100 is complete control
[21] = Preemergence, 250 g ai/ha, scale 0 to 100 (0 no effect, 100 complete control)
[22] = postemergence, 62 g ai/ha, scale 0 to 100, 0 no effect, 100 complete control

`Cc1ccc2ccccc2c1-c1c(O)c(C)nn(C)c1=O` [Compound 59] was tested, and the “Blackgrass plant response rating” value [1, 15] was 65, the “Plant response rating, Blackgrass” value [1, 16] was 85 and the “Plant response rating, Blackgrass” value [1, 17] was 90. The “Plant response rating, Blackgrass” value [1, 18] was 85, the “Plant response rating, Blackgrass” value [1, 19] was 90 and the “Plant response rating, Blackgrass” value [1, 20] was 90. For the same molecule, the “Blackgrass plant response rating” value [1, 21] was 98, the “Blackgrass plant response rating” value [1, 22] was 80 and the “Corn plant response rating” value (corn (Zea mays); [15]) was 5. The “Plant response rating, Corn” value (corn (Zea mays); [16]) was 65, the “Plant response rating, Corn” value (corn (Zea mays); [17]) was 50 and the “Plant response rating, Corn” value (corn (Zea mays); [18]) was 0. The “Plant response rating, Corn” value (corn (Zea mays); [19]) was 20, the “Plant response rating, Corn” value (corn (Zea mays); [20]) was 50 and the “Corn plant response rating” value (corn (Zea mays); [21]) was 65. The “Corn plant response rating” value (corn (Zea mays); [22]) was 45, the “Crabgrass, Large plant response rating” value [2, 15] was 15 and the “Plant response rating, Crabgrass, Large” value [2, 16] was 25. The “Plant response rating, Crabgrass, Large” value [2, 17] was 60, the “Plant response rating, Crabgrass, Large” value [2, 18] was 25 and the “Plant response rating, Crabgrass, Large” value [2, 19] was 70. The “Plant response rating, Crabgrass, Large” value [2, 20] was 85, the “Crabgrass, Large plant response rating” value [2, 21] was 100 and the “Crabgrass, Large plant response rating” value [2, 22] was 20. The “Foxtail, Giant plant response rating” value [3, 15] was 45, the “Plant response rating, Foxtail, Giant” value [3, 16] was 85 and the “Plant response rating, Foxtail, Giant” value [3, 17] was 90. For the same molecule, the “Plant response rating, Foxtail, Giant” value [3, 18] was 80, the “Plant response rating, Foxtail, Giant” value [3, 19] was 95 and the “Plant response rating, Foxtail, Giant” value [3, 20] was 98. The “Foxtail, Giant plant response rating” value [3, 21] was 100, the “Foxtail, Giant plant response rating” value [3, 22] was 60 and the “Galium plant response rating” value [4, 15] was 95. For the same molecule, the “Plant response rating, Galium” value [4, 16] was 98, the “Plant response rating, Galium” value [4, 17] was 98 and the “Plant response rating, Galium” value [4, 18] was 98. For the same molecule, the “Plant response rating, Galium” value [4, 19] was 95, the “Plant response rating, Galium” value [4, 20] was 98 and the “Galium plant response rating” value [4, 21] was 98. The “Galium plant response rating” value [4, 22] was 98, the “Johnsongrass plant response rating” value [5, 15] was 5 and the “Plant response rating, Johnsongrass” value [5, 16] was 25. For the same molecule, the “Plant response rating, Johnsongrass” value [5, 17] was 35, the “Plant response rating, Johnsongrass” value [5, 18] was 5 and the “Plant response rating, Johnsongrass” value [5, 19] was 25. For the same molecule, the “Plant response rating, Johnsongrass” value [5, 20] was 45, the “Johnsongrass plant response rating” value [5, 21] was 65 and the “Johnsongrass plant response rating” value [5, 22] was 5. For the same molecule, the “Lambsquarters plant response rating” value [6, 15] was 90, the “Plant response rating, Lambsquarters” value [6, 16] was 98 and the “Plant response rating, Lambsquarters” value [6, 17] was 98. The “Plant response rating, Lambsquarters” value [6, 18] was 70, the “Plant response rating, Lambsquarters” value [6, 19] was 90 and the “Plant response rating, Lambsquarters” value [6, 20] was 95. The “Lambsquarters plant response rating” value [6, 21] was 95, the “Lambsquarters plant response rating” value [6, 22] was 95 and the “Morningglory plant response rating” value [7, 15] was 95. The “Plant response rating, Morningglory” value [7, 16] was 100, the “Plant response rating, Morningglory” value [7, 17] was 100 and the “Plant response rating, Morningglory” value [7, 18] was 98. The “Plant response rating, Morningglory” value [7, 19] was 100, the “Plant response rating, Morningglory” value [7, 20] was 100 and the “Morningglory plant response rating” value [7, 21] was 100. The “Morningglory plant response rating” value [7, 22] was 100, the “Nutsedge, Yellow plant response rating” value [8, 15] was 65 and the “Plant response rating, Nutsedge, Yellow” value [8, 16] was 95. The “Plant response rating, Nutsedge, Yellow” value [8, 17] was 95, the “Plant response rating, Nutsedge, Yellow” value [8, 18] was 80 and the “Plant response rating, Nutsedge, Yellow” value [8, 19] was 80. The “Plant response rating, Nutsedge, Yellow” value [8, 20] was 85, the “Nutsedge, Yellow plant response rating” value [8, 21] was 90 and the “Nutsedge, Yellow plant response rating” value [8, 22] was 85. The “Oilseed Rape plant response rating” value [9, 15] was 5, the “Plant response rating, Oilseed Rape” value [9, 16] was 40 and the “Plant response rating, Oilseed Rape” value [9, 17] was 55. The “Plant response rating, Oilseed Rape” value [9, 18] was 65, the “Plant response rating, Oilseed Rape” value [9, 19] was 80 and the “Plant response rating, Oilseed Rape” value [9, 20] was 95. The “Oilseed Rape plant response rating” value [9, 21] was 95, the “Oilseed Rape plant response rating” value [9, 22] was 50 and the “Pigweed plant response rating” value [10, 15] was 90. The “Plant response rating, Pigweed” value [10, 16] was 95, the “Plant response rating, Pigweed” value [10, 17] was 98 and the “Plant response rating, Pigweed” value [10, 18] was 100. For the same molecule, the “Plant response rating, Pigweed” value [10, 19] was 100, the “Plant response rating, Pigweed” value [10, 20] was 100 and the “Pigweed plant response rating” value [10, 21] was 100. The “Pigweed plant response rating” value [10, 22] was 95, the “Ryegrass, Italian plant response rating” value [11, 15] was 85 and the “Plant response rating, Ryegrass, Italian” value [11, 16] was 90. For the same molecule, the “Plant response rating, Ryegrass, Italian” value [11, 17] was 95, the “Plant response rating, Ryegrass, Italian” value [11, 18] was 100 and the “Plant response rating, Ryegrass, Italian” value [11, 19] was 100. For the same molecule, the “Plant response rating, Ryegrass, Italian” value [11, 20] was 100, the “Ryegrass, Italian plant response rating” value [11, 21] was 100 and the “Ryegrass, Italian plant response rating” value [11, 22] was 90. For the same molecule, the “Soybean plant response rating” value (soybean (Glycine max); [15]) was 0, the “Plant response rating, Soybean” value (soybean (Glycine max); [16]) was 10 and the “Plant response rating, Soybean” value (soybean (Glycine max); [17]) was 25. For the same molecule, the “Plant response rating, Soybean” value (soybean (Glycine max); [18]) was 0, the “Plant response rating, Soybean” value (soybean (Glycine max); [19]) was 0 and the “Plant response rating, Soybean” value (soybean (Glycine max); [20]) was 15. The “Soybean plant response rating” value (soybean (Glycine max); [21]) was 25, the “Soybean plant response rating” value (soybean (Glycine max); [22]) was 15 and the “Velvetleaf plant response rating” value [12, 15] was 80. For the same molecule, the “Plant response rating, Velvetleaf” value [12, 16] was 90, the “Plant response rating, Velvetleaf” value [12, 17] was 95 and the “Plant response rating, Velvetleaf” value [12, 18] was 85. For the same molecule, the “Plant response rating, Velvetleaf” value [12, 19] was 90, the “Plant response rating, Velvetleaf” value [12, 20] was 98 and the “Velvetleaf plant response rating” value [12, 21] was 100. The “Velvetleaf plant response rating” value [12, 22] was 85, the “Waterhemp plant response rating” value [13, 15] was 85 and the “Plant response rating, Waterhemp” value [13, 16] was 98. The “Plant response rating, Waterhemp” value [13, 17] was 100, the “Plant response rating, Waterhemp” value [13, 18] was 95 and the “Plant response rating, Waterhemp” value [13, 19] was 100. The “Plant response rating, Waterhemp” value [13, 20] was 100, the “Waterhemp plant response rating” value [13, 21] was 100 and the “Waterhemp plant response rating” value [13, 22] was 90. For the same molecule, the “Wheat plant response rating” value [14, 15] was 0, the “Plant response rating, Wheat” value [14, 16] was 10 and the “Plant response rating, Wheat” value [14, 17] was 15. For the same molecule, the “Plant response rating, Wheat” value [14, 18] was 60, the “Plant response rating, Wheat” value [14, 19] was 60 and the “Plant response rating, Wheat” value [14, 20] was 75. For the same molecule, the “Wheat plant response rating” value [14, 21] was 85 and the “Wheat plant response rating” value [14, 22] was 20.
